# Literature values as cited in patent US20170056383A1, “TOPICAL HERPES PAIN TREATMENT AND COMPOSITION” (priority 2015, published 2017).
# Tested on: Herpes Simplex Virus lesions
# Settings: applied to the lesion
structure (smiles),measurement,value
CCOC(=O)c1ccc(N)cc1 [benzocaine],active working time,about 15 minutes
